Assay results as given in patent US5827655A (priority 1995, dated 1998).

Columns and labels:
type n K+ channel (mice) = settings: Table I, type n currents, mouse T cells; read-out: Blockers, half-blocking dose; cited from earlier work
[1] = system: type n K+ channel (human); settings: Table I, type n currents, human T cells; read-out: Blockers, half-blocking dose; cited from earlier work
MK3 K+ channels = target: T1, MK3 K+ channels (Mus musculus, UniProt P16390); assay: cell-based
T1 construct: The MK3 coding region was inserted into the pSP64T cloning vector; expressed in transfected cells; host or cells: Xenopus oocytes injected with MK3 mRNA (in vitro transcript from pSP64T)
T1 sequence (P16390 whole entry): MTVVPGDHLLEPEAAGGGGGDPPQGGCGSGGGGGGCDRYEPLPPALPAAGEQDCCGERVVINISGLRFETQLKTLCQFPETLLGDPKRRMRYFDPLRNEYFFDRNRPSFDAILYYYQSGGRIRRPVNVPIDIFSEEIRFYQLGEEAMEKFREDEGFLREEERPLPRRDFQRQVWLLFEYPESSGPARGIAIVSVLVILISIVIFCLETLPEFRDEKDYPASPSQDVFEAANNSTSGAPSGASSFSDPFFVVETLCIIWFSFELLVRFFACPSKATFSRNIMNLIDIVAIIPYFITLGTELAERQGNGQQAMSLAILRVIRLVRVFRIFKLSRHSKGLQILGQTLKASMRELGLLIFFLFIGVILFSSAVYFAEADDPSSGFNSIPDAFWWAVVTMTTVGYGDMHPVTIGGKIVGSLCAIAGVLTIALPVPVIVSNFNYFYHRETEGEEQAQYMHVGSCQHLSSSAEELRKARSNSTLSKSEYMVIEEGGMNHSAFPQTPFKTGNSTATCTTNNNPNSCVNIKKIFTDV
Procedure: Electrophysiology. Experiments were carried out on Xenopus oocytes with two-electrode voltage-clamp and patch-clamp techniques (17). All experiments were done at room temperature (22°-26° C.). […] The pipette solution was 3M KCl.
The patch-clamp amplifier (List L/M-EPC 7, Adams and List Associates, Ltd., Great Neck, N.Y.) was used in the voltage-clamp mode without series resistance compensation. Patch-clamp electrodes were pulled from Accu-fill 90 Micropets (Becton, Dickinson & Co., Parsippany, N.J.) in three stages, coated with Sylgard (Dow Corning Corp., Midland, Mich.) and fire-polished to resistances, measured in the bath, of 2-7M. In all patch-clamp experiments, the command input of the patch-clamp amplifier was controlled by a computer (PDP 11/73) via a digital-analog converter, and membrane currents were recorded at a band-width of 2 kHz. The holding potential was adjusted in all experiments to E=-80 mV. Correction for capacitative currents was achieved by analog subtraction. […] Due to this run-down the potency of all blockers was determined as the reduction of the mean K^+ current before and after drug treatment.
Xenopus oocytes express a high density of voltage-activated K^+ channels following injection of 70 nl of 0.01 /μg/μl MK3 mRNA. […] Outside-out patches of oocyte membrane (70 nl of 0.1 μg/μl MK3 mRNA injected) were used for measurement of gating kinetics, pharmacological sensitivity, and single channel properties.

## Nc1ccncc1 [4-AP, 4-aminopyridine]
Type n K+ channel (mice)
  IC50: […]
[1]
  IC50: 0.19 mM

## CC[N+](CC)(CC)CC [TEA, tetraethylammonium]
MK3 K+ channels; FIG. 3C, outside-out patch, oocyte injected with MK3 mRNA, read-out: Kd, dose-response curve of drugs blocking MK3 K+ current
  Kd: 11 mM
MK3 K+ channels; Table I, MK3 currents in oocytes, read-out: Blockers, half-blocking dose
  IC50: 11 mM

## Charybdotoxin [CTX]
MK3 K+ channels; CTX from both sources (C. Miller and M. Garcia)
  Block of MK3 channels in oocytes (in words): blocked MK3 channels in oocytes
